Measured values published in ChEMBL document CHEMBL5365549, “Neurosteroids and Postpartum Depression: The Mechanism, Efficacy, and Approval of Brexanolone and Zurzuvae” (ACS Med Chem Lett, 2023).

Tests used:
[1] = Inhibition of rat brain cortical membrane GABA alpha receptor by TBPS binding assay; format: cell membranes, Cortex
[2] = Cmax in human at 30 mg administered as formulated fed (high-fat meal) capsules; format: ADME; parameters: dose 30 mg; settings: in vivo, po
[3] = AUC (0 to t) in human at 30 mg administered as formulated fed (high-fat meal) capsules; format: ADME; parameters: dose 30 mg; settings: in vivo, po
[4] = AUC (0 to infinity) in human at 30 mg administered as formulated fed (high-fat meal) capsules; format: ADME; parameters: dose 30 mg; settings: in vivo, po
[5] = Cmax in human at 30 mg administered as formulated fasted capsules; format: ADME; parameters: dose 30 mg; settings: in vivo, po
[6] = AUC (0 to t) in human at 30 mg administered as formulated fasted capsules; format: ADME; parameters: dose 30 mg; settings: in vivo, po
[7] = AUC (0 to infinity) in human at 30 mg administered as formulated fasted capsules; format: ADME; parameters: dose 30 mg; settings: in vivo, po

Structure (SMILES)	IC50 [1] [nM]	further results
CC(=O)[C@H]1CC[C@H]2[C@@H]3CC[C@H]4C[C@](C)(O)CC[C@@H]4[C@H]3CC[C@]12C	93	–
CC(=O)[C@H]1CC[C@H]2[C@@H]3CC[C@@H]4C[C@@](O)(C(F)F)CC[C@@H]4[C@H]3CC[C@]12C	33	–
C[C@@]1(O)CC[C@H]2[C@H](CC[C@@H]3[C@@H]2CC[C@]2(C)[C@@H](C(=O)CO)CC[C@@H]32)C1	86	Cmax [2]: 63.1 ng/mL; AUC(0-t) [3]: 838 ng·h/mL; AUC(0-inf) [4]: 1010 ng·h/mL; Cmax [5]: 21.8 ng/mL; AUC(0-t) [6]: 530 ng·h/mL; AUC(0-inf) [7]: 640 ng·h/mL
COC[C@@]1(O)CC[C@H]2[C@H](CC[C@@H]3[C@@H]2CC[C@]2(C)[C@@H](C(C)=O)CC[C@@H]32)C1	41	–
COC[C@@]1(O)CC[C@H]2[C@@H](CC[C@@H]3[C@@H]2CC[C@]2(C)[C@@H](C(=O)CO)CC[C@@H]32)C1	94	–
COC[C@@]1(O)CC[C@H]2[C@H](CC[C@@H]3[C@@H]2CC[C@]2(C)[C@@H](C(=O)CO)CC[C@@H]32)C1	170	–
